Results as given in patent US10640497B2, “Microbiocidal oxadiazole derivatives” (SYNGENTA PARTICIPATIONS AG, priority 2015, dated 2020).

Assays:
[1] = system: Puccinia recondita f. sp. tritici; experiment: Fungicidal activity against Puccinia recondita f. sp. tritici, wheat, leaf disc preventative (brown rust); format: in vivo; conditions: foliar, wheat leaf segments, preventative (inoculated 1 day after application), 7-9 days after application, compared to untreated control
Procedure: (§1) Leaf disks or leaf segments of various plant species are cut from plants grown in a greenhouse. The cut leaf disks or segments are placed in multiwell plates (24-well format) onto water agar. The leaf disks are sprayed with a test solution before (preventative) or after (curative) inoculation. Compounds to be tested are prepared as DMSO solutions (max. 10 mg/ml) which are diluted to the appropriate concentration with 0.025% Tween20 just before spraying. The inoculated leaf disks or segments are incubated under defined conditions (temperature, relative humidity, light, etc.) according to the respective test system. A single evaluation of disease level is carried out 3 to 14 days after inoculation, depending on the pathosystem. Percent disease control relative to the untreated check leaf disks or segments is then calculated. Wheat leaf segments cv. Kanzler are placed on agar in multiwell plates (24-well format) and sprayed with the formulated test compound diluted in water. The leaf segments are inoculated with a spore suspension of the fungus 1 day after application. The inoculated leaf segments are incubated at 19° C. and 75% rh under a light regime of 12 h light/12 h darkness in a climate cabinet and the activity of a compound is assessed as percent disease control compared to untreated when an appropriate level of disease damage appears in untreated check leaf segments (7-9 days after application).

[2] = system: Puccinia recondita f. sp. tritici; experiment: Fungicidal activity against Puccinia recondita f. sp. tritici, wheat, leaf disc curative (brown rust); format: in vivo; conditions: foliar, 144 h, wheat leaf segments, curative (applied 1 day after inoculation), 6-8 days after application, compared to untreated control
Procedure: as §1, with “plates (24-well format). The leaf” for “plates (24-well format) and sprayed with the formulated test compound diluted in water. The leaf”, “of the fungus. Plates are stored in darkness at 19° C. and 75% rh. The formulated test compound diluted in water is applied 1 day” for “of the fungus 1 day”, “day after inoculation. The leaf” for “day after application. The inoculated”, “inoculation. The leaf segments” for “application. The inoculated leaf segments”, “leaf segments (6-8 days after” for “leaf segments (7-9 days after”

[3] = system: Glomerella lagenarium (Colletotrichum lagenarium); experiment: Fungicidal activity against Glomerella lagenarium (Colletotrichum lagenarium), liquid culture, cucumber, preventative (anthracnose); format: cell-based; conditions: Colletotrichum orbiculare, liquid culture (PDB), growth inhibition measured photometrically 3-4 days after application, compared to untreated control
Procedure: Mycelia fragments or conidia suspensions of a fungus, prepared either freshly from liquid cultures of the fungus or from cryogenic storage, are directly mixed into nutrient broth. DMSO solutions of the test compound (max. 10 mg/ml) is diluted with 0.025% Tween20 by a factor of 50 and 10 μl of this solution is pipetted into a microtiter plate (96-well format). The nutrient broth containing the fungal spores/mycelia fragments is then added to give an end concentration of the tested compound. The test plates are incubated in the dark at 24° C. and 96% relative humidity. The inhibition of fungal growth is determined photometrically after 2 to 7 days, depending on the pathosystem, and percent antifungal activity relative to the untreated check is calculated. Conidia of the fungus from cryogenic storage are directly mixed into nutrient broth (PDB potato dextrose broth). After placing a (DMSO) solution of test compound into a microtiter plate (96-well format), the nutrient broth containing the fungal spores is added. The test plates are incubated at 24° C. and the inhibition of growth is measured photometrically 3-4 days after application.

Phakopsora pachyrhizi = experiment: Fungicidal activity against Phakopsora pachyrhizi, soybean, leaf disc preventative (Asian soybean rust); format: in vivo; conditions: foliar, 288 h, 12-14 days after application, compared to untreated control
Procedure: Leaf disks or leaf segments of various plant species are cut from plants grown in a greenhouse. The cut leaf disks or segments are placed in multiwell plates (24-well format) onto water agar. The leaf disks are sprayed with a test solution before (preventative) or after (curative) inoculation. Compounds to be tested are prepared as DMSO solutions (max. 10 mg/ml) which are diluted to the appropriate concentration with 0.025% Tween20 just before spraying. The inoculated leaf disks or segments are incubated under defined conditions (temperature, relative humidity, light, etc.) according to the respective test system. A single evaluation of disease level is carried out 3 to 14 days after inoculation, depending on the pathosystem. Percent disease control relative to the untreated check leaf disks or segments is then calculated. Soybean leaf disks are placed on water agar in multiwell plates (24-well format) and sprayed with the formulated test compound diluted in water. One day after application leaf discs are inoculated by spraying a spore suspension on the lower leaf surface. After an incubation period in a climate cabinet of 24-36 hours in darkness at 20° C. and 75% rh leaf disc are kept at 20° C. with 12 h light/day and 75% rh. The activity of a compound is assessed as percent disease control compared to untreated when an appropriate level of disease damage appears in untreated check leaf disks (12-14 days after application).

| Compound | pest or weed control at 200 ppm [1] [%] | pest or weed control at 200 ppm [2] [%] | inhibition of growth at 20 ppm [3] [%] | pest or weed control at 200 ppm (Phakopsora pachyrhizi) [%] |
| --- | --- | --- | --- | --- |
| O=C1CCCN1Cc1ccc(-c2noc(C(F)(F)F)n2)cc1 [Compound A-1, 1-[[4-[5-(trifluoromethyl)-1,2,4-oxadiazol-3-yl]phenyl]methyl]pyrrolidin-2-one] | ≥ 80 | ≥ 80 | ≥ 80 | ≥ 80 |
| O=C1CCCCN1Cc1ccc(-c2noc(C(F)(F)F)n2)cc1 [Compound A-2, 1-[[4-[5-(trifluoromethyl)-1,2,4-oxadiazol-3-yl]phenyl]methyl]piperidin-2-one] | ≥ 80 | ≥ 80 | – | ≥ 80 |
| O=C1COCCN1Cc1ccc(-c2noc(C(F)(F)F)n2)cc1 [Compound A-3, 4-[[4-[5-(trifluoromethyl)-1,2,4-oxadiazol-3-yl]phenyl]methyl]morpholin-3-one] | ≥ 80 | ≥ 80 | – | ≥ 80 |
| CC1(C)CON(Cc2ccc(-c3noc(C(F)(F)F)n3)cc2)C1=O [Compound A-4, 4,4-dimethyl-2-[[4-[5-(trifluoromethyl)-1,2,4-oxadiazol-3-yl]phenyl]methyl]isoxazolidin-3-one] | ≥ 80 | ≥ 80 | ≥ 80 | ≥ 80 |
| CC1(C)CC(=O)N(Cc2ccc(-c3noc(C(F)(F)F)n3)cc2)O1 [Compound A-6, 5,5-dimethyl-2-[[4-[5-(trifluoromethyl)-1,2,4-oxadiazol-3-yl]phenyl]methyl]isoxazolidin-3-one] | ≥ 80 | ≥ 80 | ≥ 80 | ≥ 80 |
| CC1CC(=O)N(Cc2ccc(-c3noc(C(F)(F)F)n3)cc2)C1 (centres unmarked) [Compound A-8, 4-methyl-1-[[4-[5-(trifluoromethyl)-1,2,4-oxadiazol-3-yl]phenyl]methyl]pyrrolidin-2-one] | ≥ 80 | ≥ 80 | ≥ 80 | ≥ 80 |
| O=C1CCCN1Cc1ccc(-c2noc(C(F)(F)F)n2)cn1 [Compound A-28, 1-[[5-[5-(trifluoromethyl)-1,2,4-oxadiazol-3-yl]-2-pyridyl]methyl]pyrrolidin-2-one] | ≥ 80 | ≥ 80 | ≥ 80 | – |
| COCC(=O)N1CCN(Cc2ccc(-c3noc(C(F)(F)F)n3)cc2)C(=O)C1 [Compound A-31, 4-(2-methoxyacetyl)-1-[[4-[5-(trifluoromethyl)-1,2,4-oxadiazol-3-yl]phenyl]methyl]piperazin-2-one] | ≥ 80 | ≥ 80 | ≥ 80 | – |
| O=C1CNCCN1Cc1ccc(-c2noc(C(F)(F)F)n2)cc1 [Compound A-36, 1-[[4-[5-(trifluoromethyl)-1,2,4-oxadiazol-3-yl]phenyl]methyl]piperazin-4-ium-2-one; chloride] | ≥ 80 | – | – | – |
| O=C1CCCCN1Cc1ccc(-c2noc(C(F)(F)F)n2)c(F)c1 [Compound A-44, 1-[[3-fluoro-4-[5-(trifluoromethyl)-1,2,4-oxadiazol-3-yl]phenyl]methyl]piperidin-2-one] | ≥ 80 | ≥ 80 | ≥ 80 | – |
| O=C1OCCN1Cc1ccc(-c2noc(C(F)(F)F)n2)cc1 [Compound A-45, 3-[[4-[5-(trifluoromethyl)-1,2,4-oxadiazol-3-yl]phenyl]methyl]oxazolidin-2-one] | ≥ 80 | ≥ 80 | ≥ 80 | – |
| CC1(C)CCCN(Cc2ccc(-c3noc(C(F)(F)F)n3)nc2)C1=O [Compound A-52, 3,3-dimethyl-1-[[6-[5-(trifluoromethyl)-1,2,4-oxadiazol-3-yl]-3-pyridyl]methyl]piperidin-2-one] | – | – | ≥ 80 | – |
| CS(=O)(=O)N1CC(=O)N(Cc2ccc(-c3noc(C(F)(F)F)n3)cc2)C(=O)C1 [Compound A-59, 4-methylsulfonyl-1-[[4-[5-(trifluoromethyl)-1,2,4-oxadiazol-3-yl]phenyl]methyl]piperazine-2,6-dione] | ≥ 80 | – | ≥ 80 | ≥ 80 |
| CN(C)S(=O)(=O)N1CC(=O)N(Cc2ccc(-c3noc(C(F)(F)F)n3)cc2)C(=O)C1 [Compound A-60, N,N-dimethyl-3,5-dioxo-4-[[4-[5-(trifluoromethyl)-1,2,4-oxadiazol-3-yl]phenyl]methyl]piperazine-1-sulfonamide] | ≥ 80 | – | – | ≥ 80 |
| O=C1CNCC(=O)N1Cc1ccc(-c2noc(C(F)(F)F)n2)cc1 [Compound A-61, 1-[[4-[5-(trifluoromethyl)-1,2,4-oxadiazol-3-yl]phenyl]methyl]piperazin-4-ium-2,6-dione; chloride] | – | – | ≥ 80 | – |
| O=C1CCCN1Cc1ccc(-c2noc(C(F)(F)F)n2)c(F)c1 [Compound A-63, 1-[[3-fluoro-4-[5-(trifluoromethyl)-1,2,4-oxadiazol-3-yl]phenyl]methyl]pyrrolidin-2-one] | ≥ 80 | ≥ 80 | ≥ 80 | – |
| CC1(C)CON(Cc2ccc(-c3noc(C(F)(F)F)n3)c(F)c2)C1=O [Compound A-64, 2-[[3-fluoro-4-[5-(trifluoromethyl)-1,2,4-oxadiazol-3-yl]phenyl]methyl]-4,4-dimethyl-isoxazolidin-3-one] | ≥ 80 | – | ≥ 80 | – |
| O=S1(=O)CCCN1Cc1ccc(-c2noc(C(F)(F)F)n2)cc1Cl [Compound B-2, 2-[[2-chloro-4-[5-(trifluoromethyl)-1,2,4-oxadiazol-3-yl]phenyl]methyl]-1,2-thiazolidine 1,1-dioxide] | ≥ 80 | – | ≥ 80 | – |
| CN1CCCN(Cc2ccc(-c3noc(C(F)(F)F)n3)cc2)S1(=O)=O [Compound B-3, 2-methyl-6-[[4-[5-(trifluoromethyl)-1,2,4-oxadiazol-3-yl]phenyl]methyl]-1,2,6-thiadiazinane 1,1-dioxide] | ≥ 80 | ≥ 80 | ≥ 80 | – |
| CN1CCCN(Cc2ccc(-c3noc(C(F)(F)F)n3)cc2Cl)S1(=O)=O [Compound B-4, 2-[[2-chloro-4-[5-(trifluoromethyl)-1,2,4-oxadiazol-3-yl]phenyl]methyl]-6-methyl-1,2,6-thiadiazinane 1,1-dioxide] | – | – | ≥ 80 | – |
